From paper PMC10836395, “Investigation of how gate residues in the main channel affect the catalytic activity of Scytalidium thermophilum catalase” (Acta Crystallographica. Section D, Structural Biology, 2024) come the findings set out here.

In assay [1] the target is T1, CATPO (Scytalidium thermophilum (Humicola insolens), UniProt M4GGR5). Nature of the assay: Inhibition of catechol oxidation. The settings on record: for inhibition type: catechol oxidase activity of wild-type CATPO, Lineweaver–Burk. The format is biochemical.
T1 sequence (M4GGR5 entry or part of it): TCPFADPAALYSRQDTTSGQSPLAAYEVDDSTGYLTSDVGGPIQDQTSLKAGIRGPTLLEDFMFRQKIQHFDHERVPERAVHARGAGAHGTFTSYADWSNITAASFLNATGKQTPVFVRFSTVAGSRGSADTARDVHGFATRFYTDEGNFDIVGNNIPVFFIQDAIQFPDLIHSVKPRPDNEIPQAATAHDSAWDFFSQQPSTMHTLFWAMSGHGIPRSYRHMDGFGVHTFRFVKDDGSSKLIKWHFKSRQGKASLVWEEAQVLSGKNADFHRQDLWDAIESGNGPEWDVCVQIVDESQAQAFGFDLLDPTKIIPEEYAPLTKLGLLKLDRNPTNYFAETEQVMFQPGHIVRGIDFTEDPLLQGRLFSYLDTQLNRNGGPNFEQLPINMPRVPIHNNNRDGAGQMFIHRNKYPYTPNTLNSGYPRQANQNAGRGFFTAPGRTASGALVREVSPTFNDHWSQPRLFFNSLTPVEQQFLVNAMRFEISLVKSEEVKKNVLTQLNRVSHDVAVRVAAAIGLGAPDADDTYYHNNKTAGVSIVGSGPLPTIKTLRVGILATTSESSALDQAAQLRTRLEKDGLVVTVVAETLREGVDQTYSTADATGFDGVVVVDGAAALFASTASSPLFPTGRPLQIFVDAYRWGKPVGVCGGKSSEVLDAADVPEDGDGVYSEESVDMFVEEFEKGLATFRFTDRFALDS
Assay [2] addresses T2, CATPO E484I variant (Scytalidium thermophilum (Humicola insolens), UniProt M4GGR5, E503I). Nature of the assay: biochemical.
Assay [3] has as its target T3, CATPO E484D variant (Scytalidium thermophilum (Humicola insolens), UniProt M4GGR5, E503D). In words: biochemical.
Assay [4] has as its target T4, CATPO E484A variant (Scytalidium thermophilum (Humicola insolens), UniProt M4GGR5, E503A). In words: Substrate-specificity analysis of the phenol oxidase activity. The class given is biochemical.
The target of assay [5] is T5, CATPO T188D variant (Scytalidium thermophilum (Humicola insolens), UniProt M4GGR5, T207D). The class given is biochemical.
T5 sequence (M4GGR5 entry or part of it T207D): as the sequence (M4GGR5 entry or part of it) above
The target in assay [6] is T6, CATPO T188A variant (Scytalidium thermophilum (Humicola insolens), UniProt M4GGR5, T207A). The class given is biochemical.
T6 sequence (M4GGR5 entry or part of it T207A): as the sequence (M4GGR5 entry or part of it) above
The target of assay [7] is T7, CATPO T188I variant (Scytalidium thermophilum (Humicola insolens), UniProt M4GGR5, T207I). In words: biochemical.
T7 sequence (M4GGR5 entry or part of it T207I): as the sequence (M4GGR5 entry or part of it) above
Assay [8] addresses T2, CATPO E484I variant. The format is biochemical.
Assay [9] concerns the target T3, CATPO E484D variant. The format is biochemical.
Assay [10] deals with T8, CATPO T188F variant (Scytalidium thermophilum (Humicola insolens), UniProt M4GGR5, T207F). Nature of the assay: biochemical.
T8 sequence (M4GGR5 entry or part of it T207F): as the sequence (M4GGR5 entry or part of it) above
In assay [11] the target is T5, CATPO T188D variant. Nature of the assay: biochemical.
Assay [12] deals with T7, CATPO T188I variant. The class given is biochemical.
The target in assay [13] is T4, CATPO E484A variant. Nature of the assay: biochemical.
The target in assay [14] is T8, CATPO T188F variant. The class given is biochemical.
Assay [15] addresses T6, CATPO T188A variant. In words: biochemical.
Assay [16] has as its target T1, CATPO. Nature of the assay: Substrate-specificity analysis of the phenol oxidase activity. The format is biochemical.
Where [17] appears, read: catechol oxidation by CATPO, catechol 1 to 100 mM, read-out: K i.

Read-outs that look alike come from different tables or passages of the source. Marks after values point to notes of the source that are not given here.

T4 sequence (M4GGR5 entry or part of it E503A): as the sequence (M4GGR5 entry or part of it) above
T2 sequence (M4GGR5 entry or part of it E503I): as the sequence (M4GGR5 entry or part of it) above
T3 sequence (M4GGR5 entry or part of it E503D): as the sequence (M4GGR5 entry or part of it) above

Consider `CC(C)(C)c1ccc(O)c(O)c1` [1,4-tert-Butylcatechol, 4-tert-butylcatechol], for which the Ki on CATPO [1] (setting [17]) was 2.1 ± 0.8 mM; on CATPO E484I variant [2] it was 50 ± 1.5 mM; on CATPO E484D variant [3], 2.2 ± 0.5 mM; on CATPO T188I variant [7] it was 53 ± 4.5 mM; at CATPO T188F variant [10], 59 ± 4.5 mM; at CATPO T188D variant [11], 49 ± 3.2 mM. Besides, the Ki amounted to 67 ± 7 mM at CATPO E484A variant [13] and 2.1 ± 0.1 mM on CATPO T188A variant [15]. Besides, the V max at CATPO E484A variant [4] worked out at 65000 ± 745 mM/min; on CATPO T188D variant [5], 18000 ± 500 mM/min; on CATPO T188A variant [6], 19400 ± 568 mM/min; at CATPO E484I variant [8], 28600 ± 430 mM/min; on CATPO E484D variant [9], 18800 ± 144 mM/min; on CATPO T188I variant [12], 30500 ± 650 mM/min. For the same compound, the V max at CATPO T188F variant [14] was found to be 41600 ± 340 mM/min; on CATPO [16] it was 20000 ± 362 mM/min. The “k cat/K m” value is 10000 ± 65 s^−1 M^−1 (×10^2) at CATPO E484A variant [4]; 6590 ± 150 s^−1 M^−1 (×10^2) at CATPO T188D variant [5]; 1460 ± 150 s^−1 M^−1 (×10^2) at CATPO T188A variant [6]; 4450 ± 66 s^−1 M^−1 (×10^2) at CATPO E484I variant [8]; 1300 ± 100 s^−1 M^−1 (×10^2) at CATPO E484D variant [9]; 4900 ± 410 s^−1 M^−1 (×10^2) at CATPO T188I variant [12]. Besides, the entries for the “k cat/K m” value on CATPO T188F variant [14] and at CATPO [16] were 5230 ± 145 s^−1 M^−1 (×10^2) and 1240 ± 90 s^−1 M^−1 (×10^2), respectively. The K m at CATPO E484A variant [4] (pH 7.0 (ABTS pH 5.0), 60°C) worked out at 33 ± 0.5 mM; at CATPO T188D variant [5] (pH 7.0 (ABTS pH 5.0), 60°C), 38 ± 0.5 mM; on CATPO T188A variant [6] (pH 7.0 (ABTS pH 5.0), 60°C) it was 37 ± 1.0 mM; on CATPO E484I variant [8] (pH 7.0 (ABTS pH 5.0), 60°C) it was 37 ± 0.4 mM; at CATPO E484D variant [9] (pH 7.0 (ABTS pH 5.0), 60°C), 38 ± 0.5 mM; on CATPO T188I variant [12] (pH 7.0 (ABTS pH 5.0), 60°C), 35 ± 0.5 mM. At CATPO T188F variant [14] (pH 7.0 (ABTS pH 5.0), 60°C), this compound showed a K m of 34 ± 0.4 mM.

In the case of `Nc1nc[nH]n1` [3TR, 3-amino-1,2,4-triazole], at CATPO [1], the inhibition type entry is given as “competitive”. In addition, the Ki on CATPO [1] (setting [17]) stood at 21 ± 1 mM; at CATPO E484I variant [2] it was 40 ± 4 mM; on CATPO E484D variant [3], 22 ± 3.2 mM; on CATPO T188I variant [7], 42 ± 4 mM; at CATPO T188F variant [10] it was 54 ± 4.5 mM; on CATPO T188D variant [11], 41 ± 4.1 mM. Also, the Ki is 65 ± 5.5 mM at CATPO E484A variant [13] and 20 ± 0.2 mM on CATPO T188A variant [15].

With `O=C(NO)c1ccccc1O` [Salicylhydroxamic acid, salicylhydroxamic acid], the Ki was determined as 2.2 ± 0.4 mM on CATPO [1]; 5.4 ± 0.5 mM at CATPO E484I variant [2]; 2 ± 0.4 mM on CATPO E484D variant [3]; 5.4 ± 0.9 mM at CATPO T188I variant [7]; 5.5 ± 0.7 mM at CATPO T188F variant [10]; 5.4 ± 0.4 mM at CATPO T188D variant [11]. For the same compound, the Ki on CATPO E484A variant [13] was determined as 6.7 ± 1.1 mM; at CATPO T188A variant [15], 2.2 ± 0.4 mM. In addition, the inhibition type entry on CATPO [1] is reported as “competitive”.

With `[N-]=[N+]=[N-].[Na+]` [Sodium azide, sodium azide], the inhibition type entry against CATPO [1] is listed as “competitive”. Moreover, the Ki worked out at 42 ± 1.2 mM on CATPO [1] (setting [17]); 56 ± 1.6 mM at CATPO E484I variant [2] (catechol oxidation by E484I, read-out: K i); 41 ± 4.1 mM at CATPO E484D variant [3] (catechol oxidation by E484D, read-out: K i); 60 ± 6 mM on CATPO T188I variant [7] (catechol oxidation by T188I, read-out: K i); 62 ± 2.5 mM at CATPO T188F variant [10] (catechol oxidation by T188F, read-out: K i); 55 ± 5 mM at CATPO T188D variant [11] (catechol oxidation by T188D, read-out: K i). Besides, the Ki on CATPO E484A variant [13] (catechol oxidation by E484A, read-out: K i) was determined as 74 ± 4.8 mM; on CATPO T188A variant [15] (catechol oxidation by T188A, read-out: K i) it was 42 ± 1.4 mM.
